The record followed here is US20180353472A1, “UNIT DOSE FORMULATIONS FOR USE AS AN ANTI-FUGETACTIC AGENT” (THE GENERAL HOSPITAL CORPORATION d.b.a MASSACHUSETTS …, priority 2015, published 2018).

Molecules are shown by their SMILES.

Test [1] relates to tumor that expresses high levels of CXCL12. The settings on record: mice, subcutaneous, dose between 0.000001% and 65% of the dose appropriate for recruiting stem cells, once a day for 5 days; assessed one to three days after final dose. The method, then:
Mice are injected with tumor cells (subcutaneous injection) from a tumor that expresses high levels of CXCL12 and a tumor is allowed to develop.
One to three days after the final AMD3100 dose, mice are assessed for tumor growth and the reduction or knock down of fugetaxis.

The subject of test [2] is breast cancer tumor which over-expresses CXCL12. The note with it: human patient, dose between 0.000001% and 65% of the dose appropriate for recruiting stem cells, once a day for five days, optionally followed by a chemotherapeutic drug. The method, then:
A human patient with a breast cancer tumor which over-expresses CXCL12 is administered AMD3100 at a dose between 0.000001% and 65% of the dose appropriate for recruiting stem cells once a day for five days, optionally followed by a chemotherapeutic drug.

With `c1cc(CN2CCCNCCNCCCNCC2)ccc1CN1CCCNCCNCCCNCC1` [AMD3100, 1, 1′-[1,4-phenylenebis (methylene)]-bis-1,4,8,11-tetraazacyclotetradecane], the “anti-fugetactic effect (reduction or knock down of fugetaxis)” value in test [1] was “will have an anti-fugetactic effect”. In test [2], the “T cell recruitment into the tumor” value was “increased T cell recruitment into the tumor”, the patient survival entry is recorded as “increase in patient survival” and the tumor volume result is given as “decrease in tumor volume”.
